The values that follow come from ChEMBL document CHEMBL1123322, “Muscarinic ganglionic stimulants: conformationally restrained analogues related to [4-[[N-(3-chlorophenyl)carbamoyl]oxy]-2-butynyl]trimethylammonium chloride” (1986).

The source made the active and inactive calls. No cut-off for these calls is given here.

Holding throughout (format): functional
The species named for test [1] is Rattus norvegicus. Briefly: Compound was tested for the production of depressor effects in rat.
The target in test [2] is T1, Muscarinic acetylcholine receptor M1 (Rattus norvegicus) (UniProt P08482).
T1 sequence (whole entry): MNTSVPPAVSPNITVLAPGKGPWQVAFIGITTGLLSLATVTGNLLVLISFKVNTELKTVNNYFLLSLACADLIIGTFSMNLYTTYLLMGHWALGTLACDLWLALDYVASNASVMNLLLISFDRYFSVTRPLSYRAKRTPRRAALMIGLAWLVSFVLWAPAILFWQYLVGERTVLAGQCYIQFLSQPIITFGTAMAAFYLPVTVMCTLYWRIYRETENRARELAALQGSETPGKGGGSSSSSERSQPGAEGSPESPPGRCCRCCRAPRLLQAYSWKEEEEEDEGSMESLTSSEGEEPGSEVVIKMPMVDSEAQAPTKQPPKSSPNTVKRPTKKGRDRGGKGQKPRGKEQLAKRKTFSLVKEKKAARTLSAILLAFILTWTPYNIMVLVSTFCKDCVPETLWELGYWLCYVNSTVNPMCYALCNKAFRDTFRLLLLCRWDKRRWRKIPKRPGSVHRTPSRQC
Briefly: Muscarinic M1 receptor ganglion-stimulating activity as pressor responses in pithed rats; Inactive.

For test [3], the species on record is Rattus norvegicus. Briefly: Compound was tested for the production of […] sensitive pressor response; Range 20-30 mmHg.
Test [4] is filed under the species Rattus norvegicus. Briefly: Compound was tested for the production of piperizine sensitive pressor response.

`CN1CCC=C(COC(=O)Nc2ccccc2Cl)C1` yielded an Activity in test [1] of more than 2 µM/kg. The result in test [2] was inactive.

For `C[N+]1(C)CCC(COC(=O)Nc2cccc(Cl)c2)CC1`, the “Mean arterial blood pressure” value in test [3] is 20 mmHg.

The compound `CN1CCC=C(COC(=O)Nc2ccc(Cl)cc2)C1` registered an Activity in test [1] of more than 2 µM/kg. For the same compound, the result in test [2] was inactive.

Take `C[N+]1(C)CC=C(COC(=O)Nc2ccc(Cl)cc2)CC1.[Br-]`: in test [4], the Activity was 0.1 µM/kg.

Consider `C[N+]1(C)CC=C(COC(=O)Nc2cccc(Cl)c2)CC1.Cc1ccc(S(=O)(=O)[O-])cc1`, for which the Activity in test [1] is more than 2 µM/kg; in test [4], 0.1 µM/kg. For the same compound, the result in test [2] was inactive.

`Cc1cccc(NC(=O)OCC2C=CCN(C)C2)c1` (stereo not given) gave an Activity in test [1] of more than 2 µM/kg. Also, the result in test [2] was inactive.

In test [1], `CN1CC=C(COC(=O)Nc2cccc(Cl)c2)CC1` gave an Activity of more than 2 µM/kg. Besides, in test [2], the result was inactive.

In test [1], `CN1CCC=C(COC(=O)Nc2cccc(Cl)c2)C1` registered an Activity of more than 2 µM/kg. In test [2], the result was inactive.

As to `CN1CC=C(COC(=O)Nc2ccc(Cl)cc2)CC1`, in test [1], the Activity is more than 2 µM/kg. Also, the result in test [2] was inactive.

`CN1CC=C(COC(=O)Nc2cccc(Cl)c2)C1`: in test [3], the “Mean arterial blood pressure” value was determined as 20 mmHg.

`C[N+]1(C)CC=C(COC(=O)Nc2cccc(Cl)c2)C1` had an Activity in test [1] of 3 µM/kg.

The compound `C[N+]1(C)CCC=C(COC(=O)Nc2ccc(Cl)cc2)C1.[I-]` yielded an Activity in test [1] of 0.1 µM/kg.

Compound `CN1CCC(COC(=O)Nc2cccc(Cl)c2)CC1` had an Activity in test [1] of 0.1 µM/kg.

As for `Cc1cccc(NC(=O)OCC2=CCN(C)CC2)c1`, the Activity in test [1] was more than 2 µM/kg. For the same compound, the outcome in test [2] was inactive.

The compound `C[N+]1(C)CCC=C(COC(=O)Nc2cccc(Cl)c2)C1.[I-]` yielded an Activity in test [1] of more than 2 µM/kg. Also, the outcome in test [2] was inactive.
